According to patent US9512095B2, “Polymorph forms of desazadesferrithiocin analogs” (Ferrokin Biosciences, Inc., priority 2013, dated 2016):
“Also recorded” adds a separate entry of the source.

Legend:
[1] = Humidity exposure / comparative hygroscopicity study of solid forms (weight change, appearance, XRPD); type: physicochemical
[2] = Drying of Form A under vacuum at elevated temperature (weight loss, XRPD, HPLC/1H NMR); type: physicochemical
Method: Form A (1.0 g) was dried at 60° C. under reduced pressure for 24 h. During this time the sample decreased in weight by −7.3% w/w.
A sample of Form A was dried for 48 h under vacuum at 60° C. and reweighed. The material decreased in weight by 9.30% w/w.
The reactions conditions were repeated on a 1.0 g scale: a sample of Form A was dried for 24 hr under vacuum at 60° C. and reweighed. The material decreased in weight by 7.30% w/w. […] The material was allowed to cool to ambient temperature under vacuum before releasing the vacuum with nitrogen and transferring the Form D into a poly-tub under nitrogen.

[3] = Form inter-conversion by stirring in TBME/ethanol/water (20/5/1, v/v/v); type: physicochemical; conditions: TBME/ethanol/water (20/5/1, v/v/v) at 18-23° C. for 4 days
Method: A mixture of Forms A, B, C, and D (present in equal amounts) of Compound 1 was stirred in TBME/ethanol/water (20/5/1, v/v/v) at 18-23° C. for 4 days.
A reaction vessel was charged with a mixture of Forms A-D of Compound 1 (25 mg, 1.0 wt.). A solution of TBME/EtOH/water (20/5/1, 10 vol) was added, and was stirred at 18-23° C. for 4 days. The solid was isolated by filtration, washed with recycled mother liquors, and dried under vacuum under a N2 atmosphere.
A reaction vessel was charged with Form A of Compound 1 (25 mg, 1.0 wt.). A solution of TBME/EtOH/water (20/5/1, 10 vol) was added, and was stirred at 18-23° C. for 4 days. The solid was isolated by filtration, washed with recycled mother liquors, and dried under vacuum under a N2 atmosphere.
A reaction vessel was charged with Form B of Compound 1 (25 mg, 1.0 wt.). A solution of TBME/EtOH/water (20/5/1, 10 vol) was added, and was stirred at 18-23° C. for 4 days. The solid was isolated by filtration, washed with recycled mother liquors, and dried under vacuum under a N2 atmosphere.
A reaction vessel was charged with Form C of Compound 1 (25 mg, 1.0 wt.). A solution of TBME/EtOH/water (20/5/1, 10 vol) was added, and was stirred at 18-23° C. for 4 days. The solid was isolated by filtration, washed with recycled mother liquors, and dried under vacuum under a N2 atmosphere.
A reaction vessel was charged with Form D of Compound 1 (25 mg, 1.0 wt.). A solution of TBME/EtOH/water (20/5/1, 10 vol) was added, and was stirred at 18-23° C. for 4 days. The solid was isolated by filtration, washed with recycled mother liquors, and dried under vacuum under a N2 atmosphere.

[4] = Human pharmacokinetics: open-label, randomized relative bioavailability study of Compounds 1 and 3 (plasma total, unbound and iron bound Compound 2); type: in vivo; conditions: healthy adults, oral capsules; plasma Compound 2; relative to Compound 3, see Table 14
Method: The purpose of this Example is to characterize the pharmacokinetic profiles of Compound 1 (disodium salt) and its magnesium hydroxide salt counterpart, Compound 3:
This human study is part of an open-label, randomized, single dose, 3-period, relative bioavailability study in up to 28 healthy adults 18-65 years of age inclusive, investigating the pharmacokinetics, safety, and tolerability of Compounds 1 and 3. In this study, each study compound is administered as a single dose of 36.2 mg/kg/day or 18.1 mg/kg/day, respectively (as free acid), and as 2 doses of 36.2 mg/kg or 18.1 mg/kg, respectively (as free acid), given 12 hours apart. Table 13 provides dosages relative to free acid content.
The magnesium hydroxide salt (Compound 3) is administered as oral capsules in the following strengths: 50, 100, 200, 375 and 500 mg. The disodium salt (Compound 1) is administered as oral capsules in the following strengths: 54.1, 272.8 and 408.7 mg.
There will be 3 treatment periods in this study and 4 possible treatments. […]
Actual pharmacokinetic blood sample collection times versus time of dosing will be monitored. […]

[5] = Humidity exposure / comparative hygroscopicity study of solid forms (weight change, appearance, XRPD); type: physicochemical; conditions: for XRPD form: 48 hrs; for XRPD (final form): 18-23° C., 48 h
Method: X-Ray powder diffraction (XRPD) analysis was carried out using a Bruker D2 Phaser powder diffractometer employing a LynxEye detector. The samples underwent minimum preparation but, if necessary they were milled in a pestle and mortar before acquisition.
The samples were continuously spun during data collection and scanned using a step size of 0.02° two theta (2θ) between the range of 4°-40° two theta and a count time of 10 seconds per step. Data was processed using Bruker Diffrac. Suite.
Samples of Form D were placed in humidity chambers at 45%, 60% and 75% RH at 18-23° C. and their weight changes were monitored at intervals up to 48 h.
Accurately weighed samples of Form D were placed in humidity chambers at 45%, 60% and 75% R.H. and monitored for weight changes over 48 h.

[6] = 75% relative humidity (RH) at 15-25° C. for 1-2 days

COCCOCCOCCOc1cccc(C2=N[C@@](C)(C(=O)[O-])CS2)c1[O-].[Na+].[Na+] [Form A, (S)-2-(2-hydroxy-3-(2-(2-(2-methoxyethoxy)ethoxy)ethoxy)phenyl)-4-methyl-4,5-dihydrothiazole-4-carboxylate disodium Form A polymorph]
Form after exposure to humidity ([1]; 43% RH at 50° C. for 5 days): remained as Form A | Form after exposure to humidity [1, 6]: remained as Form A | Form after drying ([2]; 40° C. under vacuum for 48 h): partial transformation of Form A to Form D | Form after drying ([2]; 60° C. under vacuum for 24 hours): converted to Form D; also recorded: converted into Form D | Chemical stability on drying (HPLC and 1H NMR) ([2]; 60° C. under vacuum for 48 h): decomposition had not occurred | Decrease in weight on drying ([2]; 60° C. under vacuum for 48 h): 9.30 % w/w | Form after drying (XRPD) ([2]; 60° C. under vacuum for 48 h): Form D | Output form after stirring in solvent [3]: remained Form A

COCCOCCOCCOc1cccc(C2=N[C@@](C)(C(=O)[O-])CS2)c1[O-].[Na+].[Na+] [Form C, (S)-2-(2-hydroxy-3-(2-(2-(2-methoxyethoxy)ethoxy)ethoxy)phenyl)-4-methyl-4,5-dihydrothiazole-4-carboxylate disodium Form C polymorph]
Form after exposure to humidity ([1]; 75% RH at 15-25° C. for 22 h): re-generated Form A | Weight gain on exposure to humidity ([1]; 75% RH at 15-25° C. for 22 h): 18.5 % w/w | Output form after stirring in solvent [3]: converted into Form A

COCCOCCOCCOc1cccc(C2=N[C@@](C)(C(=O)[O-])CS2)c1[O-].[Na+].[Na+] [Compound 1, (S)-2-(2-hydroxy-3-(2-(2-(2-methoxyethoxy)ethoxy)ethoxy)phenyl)-4-methyl-4,5-dihydrothiazole-4-carboxylate disodium]
AUC higher than Compound 3 [4]: ~22% | Cmax higher than Compound 3 [4]: ~35%

COCCOCCOCCOc1cccc(C2=N[C@@](C)(C(=O)[O-])CS2)c1[O-].[Na+].[Na+] [Form D, (S)-2-(2-hydroxy-3-(2-(2-(2-methoxyethoxy)ethoxy)ethoxy)phenyl)-4-methyl-4,5-dihydrothiazole-4-carboxylate disodium Form D polymorph]
XRPD (final form) ([1]; 43% RH, 18-23° C., 48 h): Form A | Output form after stirring in solvent [3]: converted into Form A | XRPD form ([5]; 45% R.H.): Form A | XRPD form ([5]; 60% R.H.): Form A | XRPD (final form) ([5]; 60% RH): Form A | XRPD form ([5]; 75% R.H.): Form A | XRPD (final form) ([5]; 75% RH): Form A | Form after exposure to humidity ([5]; exposed to ≧43% relative humidity): reverts to Form A

COCCOCCOCCOc1cccc(C2=N[C@@](C)(C(=O)[O-])CS2)c1[O-].[Na+].[Na+] [Form B, (S)-2-(2-hydroxy-3-(2-(2-(2-methoxyethoxy)ethoxy)ethoxy)phenyl)-4-methyl-4,5-dihydrothiazole-4-carboxylate disodium Form B polymorph]
Form after exposure to humidity [1, 6]: re-generated Form A | Output form after stirring in solvent [3]: converted into Form A
